Measurements taken from patent US20250206722A1, “SMALL MOLECULE INHIBITORS OF TEA DOMAIN FAMILY MEMBERS” (The Scripps Research Institute, priority 2022, published 2025).
pIC50: −log10 of the molar value.

Tests used:
Assay type in all cases: cell-based
[1] = tested on: NCI-H226 cells; experiment: NCI-H226 proliferation assay (in house); conditions: Homo sapiens, 120 h, 5 days, Cell TiterGlo, 20-point 1:2 dilution from 20 μM
How it was run: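 Cells in RPMI 1640 + 10% FBS, 500 per well, dosed after 24 h with 20-point 1:2 dilutions from 20 μM (final), in triplicate. After 5 days at 37 °C, 5% CO2, viability read by CellTiter-Glo luminescence.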

[2] = tested on: transcriptional activity of TEADs; experiment: TEAD reporter assay (MCF7 TEAD-LUC reporter cells); conditions: Homo sapiens, 24 hours, BrightGlo luminescence
How it was run: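 MCF7 TEAD-LUC reporter cells were plated at 5,000/well and after 24 h treated with a 20-point 1:2 series from 20 μM final, in triplicate. Luciferase was read by BrightGlo luminescence after 24 h exposure at 37 °C.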

[3] = tested on: IMR32 cells; experiment: IMR32 cytotoxicity assay; conditions: Homo sapiens, IMR-32, 72 h, 3 days, Cell TiterGlo
Protocol: IMR32 cells were obtained from American Type Culture Collection (ATCC, CCL-127) and cultured in DMEM (Corning, 10-013-CV) supplemented with 10% fetal bovine serum (Gibco, 10438-026) and 1% penicillin-streptomycin (Gibco, 15070063). Cells were trypsinized, resuspended in growth medium, and diluted to a concentrated of 20,000 cells/mL. 1,000 cells, 50 μL of cell suspension, per well were then plated in a white 384-well plate (Corning) and incubated at 37° C., 5% CO2. After 24 hours incubation, 100 nL of test compounds in DMSO, 20-point 1:2 dilution starting from 20 μM (final concentration) in triplicate, were transferred to each well using an Agilent Bravo instrument outfitted with a pintool head. Cells were incubated at 37° C., 5% CO2 for 3 days followed by the addition of 30 μL of Cell TiterGlo (Promega; diluted 1:6 in water) to each well and luminescence values recorded using an EnVision plate reader. […]

[4] = tested on: NCI-H226 cells; experiment: NCI-H226 proliferation assay (Wuxi AppTec); conditions: Homo sapiens, 168 h, 7 days, CellTiter-Glo, top dose 10, 3-fold dilution, 9 doses
Protocol: […] Proliferation Assay (From Wuxi AppTec CO.):
Day −1: Seeding cells • (1) Equilibrate cell culture medium to 37° C. • (2) Remove and discard the culture medium. • (3) Briefly rinse the cell layer with PBS to remove all traces of serum that contains […]. • (4) Add 2-3 mL of Trypsin-EDTA solution to flask and observe cells under an inverted microscope until cell layer is dispersed. • (5) Add 6-8 mL of growth medium to terminate the digestion of Trypsin/EDTA. • (6) Centrifuge the mixture (Trypsin EDTA and the growth medium) at 1000 rpm for 5 mins. • (7) Discard the supernatant, suspend the cell precipitation with the fresh growth medium, then take 1 mL the cell suspension to count cells with Vi-cell XR cell viability analyzer. • (8) Adjust the cell density to 500 cells/well for 384-well plates. • (9) Add 50 µL/well volume cell suspension to the assay plate. • (10) Add […] media to the control columns. • (11) Incubate the plate at 37° C., 5% CO2 for overnight. Day 0: Compounds treatment • (1) Add cpds to each well by Tecan HP D300E. The top dose is […], 3-fold dilution and 9 doses. DMSO final concentration will be normalized to 0.2%. • (2) Incubate the assay plate at 37° C., 5% CO2 for 7 days. Day 7: Plate read • (1) Equilibrate the assay plate to the room temperature for nearly 30 minutes. • (2) Add […] CellTiter-Glo reagent to each well and shake the plate for 1 min, incubate 10 min and keep them from light. • (3) Detect the plate by EnVision. Data analysis:
Max: Average of the DMSO group Min: Average of medium group.

Q: Which results are given for `C=CC(=O)NC1CCN(c2nccnc2Nc2ccc(C(F)(F)F)cc2)C1` (stereo not drawn) [Example 7, N-(1-(3-((4-(trifluoromethyl)phenyl)amino)pyrazin-2-yl)pyrrolidin-3-yl)acrylamide]?
A: IC50 [1]: 0.195 µM; pIC50 [2]: 7.54; pIC50 [3]: < 5.00

Q: With `C=CC(=O)N1CCN(c2nccnc2OC2CCC(F)(F)CC2)CC1` [Example 93, 1-(4-{3-[(4,4-difluorocyclohexyl)oxy]pyrazin-2-yl}piperazin-1-yl) prop-2-en-1-one] as the molecule, how does the IC50 [1] read?
A: 0.078 µM

Q: And the pIC50 [2]?
A: 8.15

Q: And the pIC50 [3]?
A: < 4.70

Q: What does the source list for `C=CC(=O)N1CCCN(c2nccnc2Nc2ccc(C(F)(F)F)cc2)CC1` [Example 27, 1-(4-(3-((4-(trifluoromethyl)phenyl)amino)pyrazin-2-yl)-1,4-diazepan-1-yl)prop-2-en-1-one]?
A: IC50 [1]: 0.164 µM; pIC50 [2]: 7.53; pIC50 [3]: 5.00

Q: How did the IC50 [1] turn out when `C=CC(=O)N1CCN(c2nccnc2Nc2ccc(C(F)(F)F)cc2)C[C@H]1C` [Example 13, (R)-1-(2-methyl-4-(3-((4-(trifluoromethyl)phenyl)amino)pyrazin-2-yl)piperazin-1-yl)prop-2-en-1-one] was run?
A: 0.0159 µM

Q: And the pIC50 [2]?
A: 8.46

Q: And the pIC50 [3]?
A: < 5.00

Q: How did the IC50 [1] turn out when `N#CN1CCN(c2nccnc2Nc2ccc(C(F)(F)F)cc2)CC1` [Compound 2, 4-(3-{[4-(trifluoromethyl)phenyl]amino}pyrazin-2-yl)piperazine-1-carbonitrile] was run?
A: 0.252 µM

Q: What about the pIC50 [2] of the same molecule?
A: 6.33

Q: What about the pIC50 [3] of the same molecule?
A: < 4.70

Q: Which results are given for `C=CC(=O)N1CCN(c2ncccc2Nc2ccc(C(F)(F)F)cc2)CC1` [Example 134, 1-[4-(3-{[4-(trifluoromethyl)phenyl]amino}pyridin-2-yl)piperazin-1-yl]prop-2-en-1-one]?
A: IC50 [1]: 0.023 µM; pIC50 [2]: 8.65; pIC50 [3]: < 5.00

Q: Which IC50 [1] does the source give for `C=CC(=O)N1CCC(N(C)c2ccnc(Nc3ccc(C(F)(F)F)cc3)n2)CC1` [Example 124, 1-(4-(methyl(2-((4-(trifluoromethyl)phenyl)amino)pyrimidin-4-yl)amino)piperidin-1-yl)prop-2-en-1-one] here?
A: 4.64 µM

Q: What about the pIC50 [2] of the same molecule?
A: 6.48

Q: What about the pIC50 [3] of the same molecule?
A: 5.38

Q: For `C=CC(=O)N1[C@@H]2CC[C@H]1CN(c1nccnc1Nc1ccc(C(F)(F)F)cc1)C2` [Example 12, 1-((1R,5S)-3-(3-((4-(trifluoromethyl)phenyl)amino)pyrazin-2-yl)-3,8-diazabicyclo[3.2.1]octan-8-yl)prop-2-en-1-one], which IC50 [1] is on record?
A: 1.16 µM

Q: And the pIC50 [2]?
A: 6.31

Q: What about the pIC50 [3] of the same molecule?
A: 5.00

Q: What does the source list for `CC#CC(=O)N1CCN(c2nccnc2Nc2ccc(C(F)(F)F)cc2)CC1` [Example 174, 1-(4-(3-((4-(trifluoromethyl)phenyl)amino)pyrazin-2-yl)piperazin-1-yl)but-2-yn-1-one]?
A: IC50 [1]: > 20 µM; pIC50 [2]: < 4.70; pIC50 [3]: < 5.00

Q: What does the source list for `CN(C)C/C=C/C(=O)N1CCN(c2nccnc2Nc2ccc(C(F)(F)F)cc2)CC1` [Example 167, 4-(dimethylamino)-1-(4-(3-((4-(trifluoromethyl)phenyl)amino)pyrazin-2-yl)piperazin-1-yl)but-2-en-1-one]?
A: IC50 [1]: 0.108 µM; pIC50 [2]: 6.00; pIC50 [3]: 5.00

Q: Which IC50 [1] does the source give for `C=CC(=O)N1CCN(c2nccnc2Nc2cccc(C(F)(F)F)c2)CC1` [Example 30, 1-(4-(3-((3-(trifluoromethyl)phenyl)amino)pyrazin-2-yl)piperazin-1-yl)prop-2-en-1-one] here?
A: > 1 µM

Q: What about the pIC50 [2] of the same molecule?
A: 7.70

Q: What about the pIC50 [3] of the same molecule?
A: < 5.00

Q: With `C=CC(=O)N1CCN(c2cccnc2Nc2ccc(C(F)(F)F)cc2)CC1` [Example 143, 1-[4-(2-{[4-(trifluoromethyl)phenyl]amino}pyridin-3-yl)piperazin-1-yl]prop-2-en-1-one] as the molecule, how does the IC50 [1] read?
A: 0.017 µM

Q: And the pIC50 [2]?
A: 8.30

Q: And the pIC50 [3]?
A: 4.70

Q: How did the IC50 [1] turn out when `C=CC(=O)N1CCN(c2nccnc2Nc2ccc(C(F)(F)F)cc2)C[C@H]1CO` [Example 16, (S)-1-(2-(hydroxymethyl)-4-(3-((4-(trifluoromethyl)phenyl)amino)pyrazin-2-yl)piperazin-1-yl)prop-2-en-1-one] was run?
A: > 20 µM

Q: And the pIC50 [2]?
A: 5.60

Q: And the pIC50 [3]?
A: 5.30

Q: What does the source list for `C=CC(=O)N1CCN(c2nccnc2Nc2ccc(C(F)(F)F)cc2)C[C@@H]1C` [Example 14, (S)-1-(2-methyl-4-(3-((4-(trifluoromethyl)phenyl)amino)pyrazin-2-yl)piperazin-1-yl)prop-2-en-1-one]?
A: IC50 [1]: 0.0246 µM; pIC50 [2]: 8.53; pIC50 [3]: < 5.00

Q: What does the source list for `N#CCC(=O)N1CCN(c2nccnc2Nc2ccc(C(F)(F)F)cc2)CC1` [Example 171, 3-oxo-3-(4-(3-((4-(trifluoromethyl)phenyl)amino)pyrazin-2-yl)piperazin-1-yl)propanenitrile]?
A: IC50 [1]: 5.25 µM; pIC50 [2]: 5.65; pIC50 [3]: < 4.70

Q: `O=C(C1CO1)N1CCN(c2nccnc2Nc2ccc(C(F)(F)F)cc2)CC1` (stereo not drawn) [Example 172, oxiran-2-yl(4-(3-((4-(trifluoromethyl)phenyl)amino)pyrazin-2-yl)piperazin-1-yl)methanone] was tested. Which IC50 [1] did it give?
A: 1.4 µM

Q: What about the pIC50 [2] of the same molecule?
A: 8.49

Q: And the pIC50 [3]?
A: 5.00

Q: Which results are given for `C=C(CN1CCCC1)C(=O)N1CCN(c2nccnc2Nc2ccc(C(F)(F)F)cc2)CC1` [Example 189, 2-(pyrrolidin-1-ylmethyl)-1-(4-(3-((4-(trifluoromethyl)phenyl)amino)pyrazin-2-yl)piperazin-1-yl)prop-2-en-1-one]?
A: IC50 [1]: 5.36 µM; pIC50 [2]: 5.67; pIC50 [3]: 5.03

Q: What does the source list for `C=CC(=O)NC1CC2(C1)CN(c1nccnc1Nc1ccc(C(F)(F)F)cc1)C2` [Example 6, N-(2-(3-((4-(trifluoromethyl)phenyl)amino)pyrazin-2-yl)-2-azaspiro[3.3]heptan-6-yl)acrylamide]?
A: IC50 [1]: > 10 µM; pIC50 [2]: < 4.70; pIC50 [3]: < 4.70

Q: Which IC50 [1] does the source give for `C=CC(=O)N1CC2CC1CN2c1nccnc1Nc1ccc(C(F)(F)F)cc1` (stereo not drawn) [Example 11, 1-(5-(3-((4-(trifluoromethyl)phenyl)amino)pyrazin-2-yl)-2,5-diazabicyclo[2.2.1]heptan-2-yl)prop-2-en-1-one] here?
A: 0.483 µM

Q: And the pIC50 [2]?
A: 7.36

Q: And the pIC50 [3]?
A: 5.85

Q: For `C=CC(=O)N1CCN(c2nccc(Nc3ccc(C(F)(F)F)cc3)n2)CC1` [Example 125, 1-[4-(4-{[4-(trifluoromethyl)phenyl]amino}pyrimidin-2-yl)piperazin-1-yl]prop-2-en-1-one], which IC50 [1] is on record?
A: 2.52 µM

Q: And the pIC50 [2]?
A: 6.59

Q: What about the pIC50 [3] of the same molecule?
A: 5.15

Q: How did the IC50 [1] turn out when `C=CC(=O)N1CCN(c2nccnc2NC2CCC(F)(F)CC2)CC1` [Example 66, 1-(4-(3-((4,4-difluorocyclohexyl)amino)pyrazin-2-yl)piperazin-1-yl)prop-2-en-1-one] was run?
A: 0.347 µM

Q: What about the pIC50 [2] of the same molecule?
A: 7.72

Q: And the pIC50 [3]?
A: < 4.70

Q: What does the source list for `C=CC(=O)N1CCN(c2nccnc2N2CC(c3ccccc3)C2)CC1` [Example 106, 1-(4-(3-(3-phenylazetidin-1-yl)pyrazin-2-yl)piperazin-1-yl)prop-2-en-1-one]?
A: IC50 [1]: 20 µM; pIC50 [2]: 8.15; pIC50 [3]: < 4.70

Q: With `C=CC(=O)N1CCN(c2nccnc2Oc2ccc(OC(F)(F)F)cc2)CC1` [Example 72, 1-(4-(3-(4-(trifluoromethoxy)phenoxy)pyrazin-2-yl)piperazin-1-yl)prop-2-en-1-one] as the molecule, how does the IC50 [1] read?
A: 0.005 µM

Q: What about the pIC50 [2] of the same molecule?
A: 9.28

Q: What about the IC50 [4] of the same molecule?
A: 0.011 µM

Q: For `C=CC(=O)N1CC=C(c2nccnc2Nc2ccc(C(F)(F)F)nc2)CC1` [Example 55, 1-(4-(3-((6-(trifluoromethyl)pyridin-3-yl)amino)pyrazin-2-yl)-3,6-dihydropyridin-1(2H)-yl)prop-2-en-1-one], which IC50 [1] is on record?
A: 0.03 µM

Q: And the pIC50 [2]?
A: 8.40

Q: What about the IC50 [4] of the same molecule?
A: 0.058 µM
